Our source for the RP-LC retention time values is the METLIN SMRT retention time set (Domingo-Almenara et al. 2019).

This data set is described as follows: gradient 5% acetonitrile 3 min, to 50% in 2 min, to 85% in 15 min, held 3 min, 100 µL/min. The settings on record: column: Zorbax Extend-C18 2.1 x 50 mm; eluents: water / acetonitrile, 0.1% formic acid. Summed up: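 In both positive and negative ionization mode, a quadrupole time-of-flight mass spectrometer coupled to HPLC analyzed pure standards run in mixtures of ~100 molecules. The Zorbax Extend-C18 column (2.1 × 50 mm, 1.8 μm) was operated at 100 μL/min with water and acetonitrile, each containing 0.1% formic acid. The dead volume was 40 μL and the dwell volume 900 μL. Retention time came from adduct peaks that were computationally picked and individually inspected by hand.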
As to `Cc1cccc(CNC(=O)C2(C)Cn3cnc(C(=O)NC4CCCCC4)c3C(=O)N2C2CC2)c1` (stereo unspecified), the RP-LC retention time was determined as 819 s.

For `Cc1nc(SCC(=O)NCc2ccccc2Cl)cc(-c2ccccn2)n1`, the RP-LC retention time is 848 s.

`Cn1cc(C(=O)OCC2CCN(CCNS(C)(=O)=O)CC2)c2ccccc21` gave an RP-LC retention time of 680 s.

Compound `COc1ccc(-c2nc3cccnc3n2C2CCN(C(=O)c3cccs3)C2)cc1` (stereo unspecified) yielded an RP-LC retention time of 732 s.

Compound `CCCCNC(=O)Cn1c(C(=O)OC)cc2oc3ccccc3c21` showed an RP-LC retention time of 959 s.

The compound `Nc1cc(C2CCN(C(=O)Nc3ccc(Br)cc3F)CC2)no1` gave an RP-LC retention time of 736 s.

Regarding `Cc1csc(-c2csc(S(=O)(=O)N3CCc4ccccc4C3)c2)n1`, the RP-LC retention time stood at 1110 s.

With `Cc1ccn2cc(-c3ccc(NC(=O)c4ccc([N+](=O)[O-])cc4)cc3)nc2n1`, the RP-LC retention time is 655 s.

`O=C(Cc1ccc(Cl)cc1)Nc1cc(-c2ccccn2)no1` had an RP-LC retention time of 850 s.

In turn, `CCc1ccc(N2CC(c3noc(-c4ccc(OC)cc4OC)n3)CC2=O)cc1` (stereo unspecified) displayed an RP-LC retention time of 1040 s.

`O=C(Cc1cccs1)Nc1ccc2c(N3CCCCC3)ncnc2c1` yielded an RP-LC retention time of 594 s.

`CCOc1ccc(NC(=O)CN2C(=O)CC(c3cccs3)=Nc3ccccc32)cc1` registered an RP-LC retention time of 951 s.

For the compound `CSc1ccc(-c2noc(Cn3ncn4nc(-c5cccs5)cc4c3=O)n2)cc1`, the RP-LC retention time stood at 1130 s.

For `CCCNc1cc(N2CCC(CCC(=O)N(C)CCc3ccccn3)CC2)ncn1`, the RP-LC retention time came out at 570 s.

Compound `COc1ccc(-c2nc(-c3cccc(-c4ccn[nH]4)c3)no2)cc1OC` gave an RP-LC retention time of 905 s.

In the case of `CCN(CC)CCNC(=O)Cn1ncc2c3ccccc3n(C)c2c1=O`, the RP-LC retention time came to 697 s.

`CCc1ccc(NS(=O)(=O)c2cc3c(s2)CCN(C(=O)C2CC2)C3)cc1` returned an RP-LC retention time of 864 s.

In the case of `COCCNC(=O)Cn1c(=O)n(-c2ccc(C)cc2)c2ncccc21`, the RP-LC retention time is 656 s.

Take `COc1ccccc1CNC(=O)Cc1nnc(-c2ccccn2)o1`: the RP-LC retention time turned out to be 671 s.

For the compound `O=S(=O)(Nc1ccc(Cn2cncn2)cc1)c1ccc(F)c(F)c1`, the RP-LC retention time came to 721 s.

With `O=C(c1ccccc1Cl)N1CCC2(CC1)OCC(C(=O)N1CCOCC1)N2C(=O)c1ccccc1` (stereo unspecified), the RP-LC retention time came out at 656 s.

For the compound `Cc1ccc(NC(=O)c2cn3c(n2)CCCC3)cc1C`, the RP-LC retention time amounted to 604 s.

Regarding `CCc1ccc(OCC(=O)Nc2cnn(CC)c(=O)c2N2CCCCC2)cc1`, the RP-LC retention time came to 1240 s.

Compound `O=C(Nc1cc(F)ccc1F)c1cc2sccc2n1Cc1ccc(Cl)cc1` came in with an RP-LC retention time of 1280 s.

The compound `Cc1cc(-c2nnc(-c3ccc(F)cc3)o2)c(C)n1CC(=O)Nc1ccccc1F` gave an RP-LC retention time of 959 s.

In turn, `Cc1cccc(NC(=O)N2CCC3(CC2)N=C(c2ccccc2)C(=O)N3)c1` yielded an RP-LC retention time of 806 s.

Compound `CCc1cc(C(=O)Nc2ccc(Cl)cc2)no1` displayed an RP-LC retention time of 997 s.

Compound `O=C(Nc1cccc(-c2nnc3n2CCCC3)c1)C1CCCC1` gave an RP-LC retention time of 673 s.

`CC(=O)c1cccc(NC(=O)c2cccc(Br)c2)c1` gave an RP-LC retention time of 840 s.

As to `Cc1c(C(=O)NC(C)C)cnn1-c1cc(-c2nc(C3CC3)no2)ccn1`, the RP-LC retention time turned out to be 865 s.

For `Cc1ncc2c(n1)C[C@@H]1CC[C@H]2N1C(=O)Nc1ccc(C)c(F)c1`, the RP-LC retention time was 728 s.

As for `COc1cccc(-c2ccc(=O)n(CCc3nc(-c4cccnc4)no3)n2)c1`, the RP-LC retention time was 746 s.

As for `CCOC(=O)c1ccc(N2C(=O)[C@@H]3Cc4ccccc4CN3C2=O)cc1`, the RP-LC retention time is 970 s.

The compound `COc1ccc(CN2C[C@@H](CO)[C@H](c3ccncc3)C2)cc1C` came in with an RP-LC retention time of 542 s.

Compound `CC(C)c1ccc(C(C)NC(=O)C2CCN(Cc3cn(C)c4ccccc34)CC2)cc1` (stereo unspecified) showed an RP-LC retention time of 804 s.

`COc1ccc(CNC(=O)Cn2c(C)cc(-c3nnc(C4CCC4)o3)c2C)cc1` displayed an RP-LC retention time of 818 s.

`CCOc1ccc(NC(=O)CN2C(=O)CCc3cc(Br)ccc32)cc1` yielded an RP-LC retention time of 926 s.

As to `CCOC(=O)CCNC(=O)N1CCC(OC2CCN(Cc3ccccc3)CC2)CC1`, the RP-LC retention time was 607 s.

In the case of `Cc1cc(Cl)ccc1OCC(=O)N1CCCCC1c1nncn1C` (stereo unspecified), the RP-LC retention time is 767 s.

`Cc1ccc(N2CC(NC(=O)NCc3ccco3)CC2=O)cc1C` (stereo unspecified) gave an RP-LC retention time of 682 s.

The compound `Cc1c2c(nn1-c1ccc(SCc3ccccc3F)nn1)CCC2` registered an RP-LC retention time of 1270 s.

As for `O=C1CCCC(=O)C1CC1C(=O)CCCC1=O`, the RP-LC retention time amounted to 836 s.

With `CCOC(=O)Cc1csc(NC(=O)CSc2nc(C)cc(C)n2)n1`, the RP-LC retention time stood at 728 s.

As to `COc1ccc(N2CC(c3noc(-c4ccc(OC(F)(F)F)cc4)n3)CC2=O)cc1` (stereo unspecified), the RP-LC retention time came to 1070 s.

The compound `CCOC(=O)c1ccc(NC(=O)Cn2ccc3ccc(-c4nnc(C)o4)cc32)cc1` came in with an RP-LC retention time of 944 s.

In turn, `C=C1C(=O)OCC2C(C(=O)O)=CC3C(C)C(C)=CC123` (stereo unspecified) had an RP-LC retention time of 730 s.

In turn, `COc1ccc(NC(=O)[C@@H]2c3ccccc3C(=O)N3CCCC[C@@H]23)cc1OC` returned an RP-LC retention time of 727 s.

For `COc1ncccc1CNC(=O)CCc1c(C)noc1C`, the RP-LC retention time came out at 556 s.

`Cc1ccccc1Cn1nc2ccc(S(=O)(=O)N3CCCCC3)cn2c1=O` displayed an RP-LC retention time of 813 s.

As for `Cn1nc(-c2nnc(-c3ccccc3F)o2)c2c1CCN(S(=O)(=O)c1ccc(F)cc1F)C2`, the RP-LC retention time worked out at 922 s.

In turn, `O=c1cc(-c2ccncc2)nc(N2CCCC2)n1Cc1ccccc1` registered an RP-LC retention time of 1200 s.

For the compound `Cc1ccc(NC(=O)Cn2c(NCCN3CCOCC3)nc3ccccc32)cc1`, the RP-LC retention time amounted to 556 s.

Take `CSC(=O)NC(=O)NC(=O)c1ccc([N+](=O)[O-])cc1`: the RP-LC retention time worked out at 849 s.

`CCCn1cc(C(=O)Nc2ccc(OC)cc2)c(=O)c2ccc(C)nc21` returned an RP-LC retention time of 1100 s.

As for `COc1ccc(-n2ccn3cc(-c4ccc(Cl)cc4)nc3c2=O)cc1OC`, the RP-LC retention time is 810 s.

Compound `COc1cccc(N2CCN(c3ccnc(SCC(=O)NCCCc4ccccc4)n3)CC2)c1` gave an RP-LC retention time of 804 s.

Regarding `CCOc1ccc(N(CC)C(=O)C(=O)c2c[nH]c3ccccc23)cc1`, the RP-LC retention time stood at 852 s.

Compound `O=C(NC1CCCCCC1)C1CCN(Cc2cc3ccccc3n2Cc2cccc(Cl)c2)CC1` yielded an RP-LC retention time of 882 s.

`COC(=O)Nc1ccc(S(=O)(=O)NCc2ccc(C)cc2)cc1`: the RP-LC retention time was 788 s.

As for `O=C(NCc1nc(-c2ccc(-c3csc(C4CC4)n3)cc2)no1)c1ccccc1`, the RP-LC retention time amounted to 1030 s.

Compound `Cc1ccc(-c2nc3nc(C)cc(N4CCOCC4)n3n2)cc1` showed an RP-LC retention time of 763 s.

`Cc1ccnc(N2CCC(C(=O)NCCCN3CCCC(C)C3)CC2)n1` (stereo unspecified) displayed an RP-LC retention time of 568 s.

Turning to `O=C(c1ccncc1)N1CCCn2nc(-c3ccc(Cl)cc3)cc2C1`, the RP-LC retention time came to 719 s.

In turn, `Cc1ccc(CNC(=O)N2CCC3(C2)C(=O)N(C)c2ccccc23)cc1` (stereo unspecified) registered an RP-LC retention time of 797 s.

`COc1ccc(-c2nc(NCCCN3CCN(C)CC3)c3ccccc3n2)cc1` displayed an RP-LC retention time of 828 s.

As to `Cc1ccccc1NS(=O)(=O)c1cc(-c2nc(C(C)(C)C)cs2)cs1`, the RP-LC retention time worked out at 1260 s.

Regarding `COc1ccc2oc(-c3ccncc3)cc(=O)c2c1`, the RP-LC retention time worked out at 701 s.

In turn, `Cc1ccc(S(=O)(=O)c2cnc(N3CCC(C(N)=O)(N4CCCCC4)CC3)nc2N)cc1C` had an RP-LC retention time of 654 s.

With `CCc1ccc(NC(=O)N2CCC(c3nc(C(=O)N4CCCC4)c(C)o3)CC2)cc1`, the RP-LC retention time was 870 s.

Consider `Cc1ccc(Oc2nccnc2SCC(=O)NCCC2=CCCCC2)cc1`, for which the RP-LC retention time came out at 1090 s.

`CCCNc1cc(N2CCCC(CCC(=O)NC(C)C)C2)ncn1` (stereo unspecified) had an RP-LC retention time of 616 s.

As to `CCOc1ccc(N(C)C(=O)C2CCN(S(=O)(=O)c3ccc4c(c3)NC(=O)CO4)CC2)cc1`, the RP-LC retention time worked out at 784 s.

The compound `CCN1C(=O)c2cc(C(=O)NCc3cccc(C)c3)nn2CC1(C)C(=O)NC1CCCC1` (stereo unspecified) registered an RP-LC retention time of 812 s.

`CCC(=O)N1CCc2ccccc2C1C(=O)NCc1ccc(Br)cc1` (stereo unspecified) came in with an RP-LC retention time of 887 s.

Regarding `CN(C)CCNC(=O)C1CCN(c2nc3ccc(-c4cncnc4)nc3s2)CC1`, the RP-LC retention time came to 574 s.

`Cc1cc(-c2c(C)sc(C)c2S(=O)(=O)Nc2ccc(C(C)C)cc2)n[nH]1` returned an RP-LC retention time of 1200 s.

`Cn1c(=O)c(N2CCC(NC(=O)NCc3ccc(F)cc3)CC2)nc2ccccc21` showed an RP-LC retention time of 814 s.

The compound `Cc1cccc(Sc2nccnc2N2CCC(C(=O)NCc3cccc(Cl)c3)CC2)c1` returned an RP-LC retention time of 1150 s.

In turn, `NC(=O)C1CCN(C(=O)Cc2csc(NC(=O)c3ccco3)n2)CC1` came in with an RP-LC retention time of 572 s.

Consider `COCCOC(=O)c1c(C)oc2ccc(OC(=O)c3cccs3)cc12`, for which the RP-LC retention time stood at 1020 s.

The compound `CCCn1c(CCNC(=O)c2ccc(F)cc2F)nc2cccnc21` returned an RP-LC retention time of 675 s.
